# Results taken from article PMC4801406, “MTH1 Substrate Recognition—An Example of Specific Promiscuity” (PLoS ONE, 2016).
# Values joined by “and” are separate entries in the source; they are usually repeats but may differ in a detail not shown here. Equal entries are not always repeated. Where two headings read alike, the source gives them in different places.
# Key:
# [1] = target: T1, MTH1 (Homo sapiens, UniProt P36639); test: 2D-NMR (1H-15N SOFAST-HMQC) titration, Kd from chemical shift perturbations; assay type: binding; details: 100 μM 15N-MTH1, 298 K, pH 7.4
# T1 construct: Full length p18 isoform MTH1 (M1-156) with an N-terminal 6-His TEV protease cleavable tag; 6-His (TEV-cleavable) (N, cleaved yes); made in house; host or cells: E. coli Gold BL21(DE3)
# Protocol: Uniformly ^15N-labeled MTH1 was prepared as above with the TB media replaced M9 minimal media supplemented with 5 g/l of IsoGro base powder (^15N, 98%, Isotec) and 2 g/l of glucose. NMR samples were 100 μM in 50mM HEPES pH 7.4, 50 mM NaCl, 1 mM TCEP, 0.1 mM EDTA, 0.02% NaN3 and employing 1% d^6-DMSO as a lock signal. Spectra were acquired at 298 K on a Bruker Avance 600 MHz spectrometer running Topspin 2.1, equipped with a 5mm TCI cryoprobe with Z-axis gradients. The protein was titrated with compound stocks (100 mM in d6-DMSO) to give typical final compound concentrations 0, 50, 100, 198, 396, 593, 984, 1949 and 3824 μM; these were measured using ^1H-^15N-SOFAST-HMQC [17] experiments recorded with […] (t2,t1) complex points (in States-TPPI mode), and 9615x1624 Hz (^1H,^15N) spectral widths, (53.4 ms x 30.8 ms) acquisition times, respectively). The affinity of the compounds was determined via simultaneous nonlinear fitting of fast-exchange chemical shift perturbations (typically 5 amide correlations, employing absolute value of the linear ^1H,^15N chemical shift vector), with the GraFit package against compound concentration using a mass action binding isotherm equation.
# [2] = target: T1, MTH1; test: Biochemical IC50 for fragments (Fig 5)
# [3] = target: T2, Histidine-tagged MTH1 (isoform p18 (M1-V156)) (Homo sapiens, UniProt P36639); test: Surface plasmon resonance (SPR) equilibrium binding; details: steady-state, 1:1 Langmuir fit
# T2 construct: Histidine-tagged MTH1 (isoform p18 (M1-V156)) was immobilized; made in house; host or cells: E. coli Gold BL21(DE3)
# Protocol: SPR experiments were performed using a Biacore T200 biosensor (GE Healthcare). Series S NTA sensor chips (GE Healthcare) were used. All experiments were carried out using assay buffer containing; 50 mM HEPES pH 7.5, 150 mM NaCl, 0.005% Tween-20 (v/v) and 1% DMSO (v/v) as running buffer. Typically, 10 mM DMSO stocks of compounds were diluted 1:100 (v/v) in 50 mM HEPES pH 7.5, 150 mM NaCl, 0.005% Tween-20 (v/v) to form 100 μM intermediate stocks with final DMSO concentration of 1% (v/v). The intermediate solutions were then subsequently diluted using assay buffer to achieve final concentration range.
# Histidine-tagged MTH1 (isoform p18 (M1-V156)) was immobilized as the ligand onto NTA sensor chips using a capture coupling method. Assay buffer was used as immobilization buffer. The nitrilotriacetic (NTA) surface was first activated with a 2-min injection of 500 μM NiCl2 in running buffer before the carboxymethyl dextran surface was activated with a 7-min injection of a 1:1 ratio of 0.4 M EDC and 0.1 M NHS. His-tagged protein was diluted into running buffer to a concentration of 20 μg/mL and immobilized to the surface with a 7-min injection. Remaining activated groups were blocked with two consecutive 60-sec pulses of 0.5 M Ethanolamine. Typical immobilization levels ranged from 500 to 3000 resonance units (RU).
# Biacore T200 Evaluation software (GE Healthcare) was used for data processing and analysis. Equilibrium binding analysis was analyzed by plotting steady-state response level vs. compound concentration and fitting to the Langmuir equation (describing simple 1:1 binary interaction).
# [4] = target: T1, MTH1; test: MTH1 substrate Km determination (PPiLight pyrophosphate detection; malachite green coupled assay); assay type: biochemical; details: this publication; 0.2 nM MTH1, substrate 0–300 μM
# Protocol: MTH1 substrate Km determination assay conditions were 0.2 nM MTH1 and a concentration range of substrate from 0–300 μM, diluted in MTH1 reaction buffer (100 mM HEPES pH 7.5, 10 mM MgCl, 1 mM DTT and 0.005% Tween 20). After a reaction time of 15 minutes, pyrophosphate (PPi) released by the reaction was detected using the PPiLight inorganic pyrophosphate assay kit from Lonza and luminescence was monitored using the Perkin Elmer EnVision multimode plate reader. Substrates dGTP and 2-OH—dATP were sourced from Jena Bioscience. Substrates 8-oxo-dGTP, 8-oxo-rGTP, 8-oxo-dATP, 8-oxo-rATP and 2-OH-rATP were sourced from TriLink BioTechnologies.
# All oxidised ATP-derived substrates were then tested using an assay format based on the enzymatic hydrolysis of the nucleotide substrate by purified human recombinant MTH1 to form the corresponding monophosphate nucleotide and pyrophosphate. An excess of inorganic pyrophosphatase was added to the assay, which allows the quantification of released inorganic phosphate as a measure of product levels in a coupled enzymatic assay. Inorganic phosphate was measured using an absorbance assay based on malachite green as described by Baykov et al.. The assay buffer in which MTH1, inorganic pyrophosphatase and substrates were diluted consisted of 100mM Tris at pH 7.4, 40 mM NaCl, 10 mM MgCl, 0.005% Tween 20 and 1 mM DTT. The final conditions in the assay during enzymatic incubation were 0.2 nM recombinant human MTH1, a three fold dilution range of 0–300 μM oxidised nucleotide substrate and 0.2U per ml inorganic pyrophosphatase.
# [5] = target: T1, MTH1; details: literature value, cited from earlier work
Compound,Kd [1] [µM],IC50 [2] [µM],Kd [3] [µM],Km [4],"Km ([5]; ref [4],[34]) [µM]",Km ([5]; ref [26]) [µM]
CC(=O)Nc1ccc2c(c1)ncn2C [Compound 5],95 ± 35,> 80,> 40,,,
"Nc1nc2c([nH]c(=O)n2[C@@H]2O[C@H](COP(=O)(O)OP(=O)(O)OP(=O)(O)O)[C@@H](O)[C@H]2O)c(=O)[nH]1 [Compound 8-oxo-rGTP, 8-oxo-rGTP]",,,,82 ± 45 µM,55,
CN(C)c1nc2c(ncn2C)c(=O)[nH]1 [Compound 4],2200,> 100,,,,
Nc1nc2c(ncn2[C@H]2C[C@H](O)[C@@H](COP(=O)(O)OP(=O)(O)OP(=O)(O)O)O2)c(=O)[nH]1 [dGTP],,,,420 µM,258,
Cn1c(=O)[nH]c2c(=O)[nH]c(N)nc21 [Compound 1],400,> 100,,,,
"Nc1[nH]c(=O)nc2c1ncn2[C@@H]1O[C@H](COP(=O)(O)OP(=O)(O)OP(=O)(O)O)[C@@H](O)[C@H]1O [Compound 2-OH-rATP, 2-OH-rATP]",,,,13.4 µM and 13 µM,4.3,
"Nc1ncnc2c1[nH]c(=O)n2[C@H]1C[C@H](O)[C@@H](COP(=O)(O)OP(=O)(O)OP(=O)(O)O)O1 [Compound 8-oxo-dATP, 8-oxo-dATP]",,,,7.6 ± 0.5 µM,15.2,13.9
"Nc1[nH]c(=O)nc2c1ncn2[C@H]1C[C@H](O)[C@@H](COP(=O)(O)OP(=O)(O)OP(=O)(O)O)O1 [Compound 2-OH-dATP, 2-OH-dATP]",,,,14 ± 6 µM,8.3,
Cn1cnc2c(O)nc(N)nc21 [Compound 2],1100,> 100,,,,
"Nc1ncnc2c1[nH]c(=O)n2[C@@H]1O[C@H](COP(=O)(O)OP(=O)(O)OP(=O)(O)O)[C@@H](O)[C@H]1O [Compound 8-oxo-rATP, 8-oxo-rATP]",,,,241 µM and 240 µM,51,
CNc1cc(=O)[nH]c(=O)[nH]1 [Compound 7],< 5,1.5,0.81,,,
CNc1nc2c(ncn2C)c(=O)[nH]1 [Compound 3],82 ± 6,59,24 ± 0.4,,,
Cc1cc(OCCCO)nc(N)n1 [Compound 6],< 5,4.5,1.7,,,
